In data set [1] the test system is Serratia marcescens GN10857. As to the kind of experiment: minimum inhibitory concentration (MIC). In kind it is cell-based. The conditions noted are these: Tables 2A, 2B. As for the experimental part: (§1) The minimum inhibitory concentration (MIC) of the compounds obtained in the above Examples were measured according to the standard method of Japan Society of Chemotherapy.

The subject of data set [2] is Citrobacter freundii GM7391. As to the kind of experiment: minimum inhibitory concentration (MIC). In kind it is cell-based. The method, then:
as §1

The subject of data set [3] is Escherichia coli GN5482. Nature of the data set: minimum inhibitory concentration (MIC). In kind it is cell-based. The conditions noted are these: Tables 2A, 2B. The method, then: as §1
The test system of data set [4] is Citrobacter freundii GN7391. Nature of the data set: minimum inhibitory concentration (MIC). The format is cell-based. The method, then:
as §1

Data set [5] relates to Pseudomonas maltophilia OF247. As to the kind of experiment: minimum inhibitory concentration (MIC). In kind it is cell-based. The conditions noted are these: Stenotrophomonas maltophilia, Tables 2A, 2B. As for the experimental part:
as §1

In data set [6] the test system is Proteus vulgris GN7919. Nature of the data set: minimum inhibitory concentration (MIC). In kind it is cell-based. As for the experimental part:
as §1

In data set [7] the test system is Enterobacter cloacae IV25. Nature of the data set: minimum inhibitory concentration (MIC). The format is cell-based. As for the experimental part: as §1
Data set [8] has as its system Pseudomonas aeruginosa 4au542. Nature of the data set: minimum inhibitory concentration (MIC). The following applies: Tables 2A, 2B. The format is cell-based. The method, then: as §1
For data set [9], the system named is Pseudomonas aeruginosa GN10362. As to the kind of experiment: minimum inhibitory concentration (MIC). In kind it is cell-based. The following applies: Tables 2A, 2B. The method, then: as §1
The test system of data set [10] is Citrobacter freundii 1R523. Nature of the data set: minimum inhibitory concentration (MIC). The format is cell-based. The method, then: as §1
The subject of data set [11] is Enterobacter cloacae GN7471. As to the kind of experiment: minimum inhibitory concentration (MIC). In kind it is cell-based. The method, then: as §1
The test system of data set [12] is Citrobacter freundii 1R527. As to the kind of experiment: minimum inhibitory concentration (MIC). In kind it is cell-based. The method, then:
as §1

Data set [13] relates to Enterobacter cloacae 908RN. Nature of the data set: minimum inhibitory concentration (MIC). The format is cell-based. The method, then: as §1
Data set [14] has as its system Citrobacter freundii 1U589. Nature of the data set: minimum inhibitory concentration (MIC). The format is cell-based. The method, then: as §1
The test system of data set [15] is Pseudomonas aeruginosa 5D58-1. As to the kind of experiment: minimum inhibitory concentration (MIC). In kind it is cell-based. The conditions noted are these: 5D581, Tables 2A, 2B. The method, then:
as §1

The subject of data set [16] is Pseudomonas cepacia OF189. As to the kind of experiment: minimum inhibitory concentration (MIC). In kind it is cell-based. The conditions noted are these: Burkholderia cepacia, Tables 2A, 2B. As for the experimental part: as §1
For data set [17], the system named is Escherichia coli ML4704. As to the kind of experiment: minimum inhibitory concentration (MIC). The format is cell-based. As for the experimental part:
as §1

Data set [18] concerns Citrobacter freundii 1U592. As to the kind of experiment: minimum inhibitory concentration (MIC). The format is cell-based. As for the experimental part:
as §1

Data set [19] has as its system Citrobacter freundii 1R524. As to the kind of experiment: minimum inhibitory concentration (MIC). In kind it is cell-based. As for the experimental part:
as §1

In data set [20] the test system is Klebsiella pneumoniae 4at521. Nature of the data set: minimum inhibitory concentration (MIC). In kind it is cell-based. The conditions noted are these: Tables 2A, 2B. The method, then: as §1
Data set [21] has as its system Citrobacter freundii 1R526. As to the kind of experiment: minimum inhibitory concentration (MIC). The format is cell-based. The method, then: as §1
Data set [22] concerns Citrobacter freundii 5D60-1. As to the kind of experiment: minimum inhibitory concentration (MIC). The format is cell-based. As for the experimental part: as §1
Data set [23] relates to Staphylococcus aureus Smith. As to the kind of experiment: minimum inhibitory concentration (MIC), standard method of Japan Society of Chemotherapy. In kind it is cell-based. The following applies: Tables 2A, 2B. As for the experimental part:
as §1

The conditions of data set [24]: among existing cephalosporins; known; cited from earlier work.
Data set [25] can be described thus: in vivo. The arrangement: species or system cynomolgus monkeys. The following applies: cynomolgus monkey, 20 mg/kg. The method, then: 20 mg/kg of compound obtained in the above Example 18 was administered parenterally to cynomolgus monkeys and the half-life in blood was measured.
The concentration of the compound was measured according to HPLC method. Novapack C18 or Microbondapack C18 (both trade name, produced by Waters Co.) was used for analysis. Further, cefpiramide was used as a control drug.

Data set [26] concerns Staphylococcus aureus IAA498. Nature of the data set: minimum inhibitory concentration (MIC). In kind it is cell-based. The conditions noted are these: Tables 2A, 2B. The method, then:
as §1

In data set [27] the test system is Enterobacter cloacae 5D83-2. As to the kind of experiment: minimum inhibitory concentration (MIC). The format is cell-based. The following applies: 5D832. The method, then: as §1
For data set [28], the system named is Enterobacter cloacae 5D52-2. As to the kind of experiment: minimum inhibitory concentration (MIC). In kind it is cell-based. The following applies: 5D522. The method, then: as §1
Data set [29] has as its system Enterobacter cloacae IY247. Nature of the data set: minimum inhibitory concentration (MIC). The format is cell-based. The method, then:
as §1

[30] abbreviates: Enterobacter cloacae 908RN, Tables 2A, 2B.
[31] abbreviates: Escherichia coli ML4704, Tables 2A, 2B, read-out: MIC.
Setting [32] is: Citrobacter freundii GN7391, Tables 2A, 2B, read-out: MIC.
[33] abbreviates: Proteus vulgris GN7919, Tables 2A, 2B, read-out: MIC.
Setting [34] is: Enterobacter cloacae GN7471, Tables 2A, 2B, read-out: MIC.

Structures are written as SMILES. Converted amounts (≈) assume the structure as drawn. Counter-ions that a name gives are not always drawn. Like-named read-outs stand apart in the source and are kept apart here.

In general, MIC refers to the lowest concentration found to suppress growth. `CC(C)(O/N=C(\C(=O)N[C@@H]1C(=O)N2C(C(=O)[O-])=C(C[n+]3ccccc3)CS[C@H]12)c1csc(N)n1)C(=O)O` [CAZ, ceftazidime, reference compound]: the minimum inhibitory concentration (MIC) in [1] was 3.13 µg/mL (≈ 5.73 µM); in [2], more than 100 µg/mL; in data set [3], 1.56 µg/mL (≈ 2.85 µM); in data set [4] (Citrobacter freundii, GN7391), more than 100 µg/mL; in data set [5] it was 3.13 µg/mL (≈ 5.73 µM); in data set [6], 1.56 µg/mL (≈ 2.85 µM). The MIC came to 50 µg/mL (≈ 91.5 µM) in data set [7]; 3.13 µg/mL (≈ 5.73 µM) in [8]; 1.56 µg/mL (≈ 2.85 µM) in data set [9]; 25 µg/mL (≈ 45.7 µM) in data set [10]; 3.13 µg/mL (≈ 5.73 µM) in [11] (Enterobacter cloacae, GN7471); 25 µg/mL (≈ 45.7 µM) in data set [12]. Further, the minimal inhibitory concentration (MIC) is more than 100 µg/mL in data set [13] (Enterobacter cloacae 908RN, Table 3, clinical isolates resistant to ceftazidime); 100 µg/mL (≈ 183 µM) in data set [13] (setting [30]); 100 µg/mL (≈ 183 µM) in data set [14]; 1.56 µg/mL (≈ 2.85 µM) in data set [15]; 6.25 µg/mL (≈ 11.4 µM) in data set [16]; 0.05 µg/mL (≈ 0.0915 µM) in [17] (setting [31]). For the same compound, the MIC in data set [18] is 100 µg/mL (≈ 183 µM); in data set [19], 25 µg/mL (≈ 45.7 µM); in data set [20], 0.1 µg/mL (≈ 0.183 µM); in [21], 25 µg/mL (≈ 45.7 µM); in data set [22] (5D601), more than 100 µg/mL; in data set [23] it was 6.25 µg/mL (≈ 11.4 µM).

By half-life is commonly meant how long it takes for the measured level to halve. A lower half-life goes with fast loss. On to `Cc1cc(O)c(C(=O)N[C@@H](C(=O)N[C@@H]2C(=O)N3C(C(=O)O)=C(CSc4nnnn4C)CS[C@H]23)c2ccc(O)cc2)cn1` [Cefpiramide, cefpiramide, reference compound], for which, in data set [24], the half-life in blood entry is given as “long half-life in blood”. For the same compound, in [25], the half-life is 2.5 h.

`Cc1cc(SCC2=C(C(=O)O)N3C(=O)C(NC(=O)C(=NOC(C)(C)C(=O)NNC(=O)c4ccc(O)c(O)c4)c4csc(N)n4)C3SC2)n2nc(CO)nc2n1` (stereo not shown) [Example 18, 7-{2-[2-amino-1,3-thiazol-4-yl]-2-[1-(3-(3,4-dihydroxybenzoyl)carbazoyl)-1-methylethoxyimino]acetamide}-3-[(2-hydroxymethyl-5-methyl-s-triazolo[1,5-a]pyrimidin-7-yl)thiomethyl]-3-cephem-4-carboxylic acid.sodium salt]: the MIC in [1] was found to be 0.78 µg/mL; in data set [26], 6.25 µg/mL; in [2] (read-out: MIC) it was 6.25 µg/mL; in data set [3], 0.025 µg/mL; in data set [4] (setting [32]) it was 12.5 µg/mL; in data set [27] it was 0.78 µg/mL. In addition, the minimum inhibitory concentration (MIC) was 0.39 µg/mL in [5]; 1.56 µg/mL in data set [6] (setting [33]); 1.56 µg/mL in [7] (read-out: MIC); 0.39 µg/mL in data set [28]; 0.2 µg/mL in data set [8]; 0.05 µg/mL in data set [9]. Moreover, the MIC in [10] (read-out: MIC) stood at 0.78 µg/mL; in data set [11] (setting [34]), 6.25 µg/mL; in [12] (read-out: MIC), 0.2 µg/mL; in data set [13] (Enterobacter cloacae 908RN, Table 3, clinical isolates resistant to ceftazidime, read-out: MIC), 12.5 µg/mL; in data set [13] (Enterobacter cloacae 908RN, Tables 2A, 2B, read-out: MIC) it was 6.25 µg/mL; in data set [14] (read-out: MIC), 1.56 µg/mL. Also, the MIC in [15] was found to be 0.05 µg/mL; in data set [16], 0.025 µg/mL; in data set [29], 6.25 µg/mL; in data set [17] (setting [31]) it was 0.012 µg/mL; in data set [18] (read-out: MIC) it was 25 µg/mL; in data set [19] (read-out: MIC) it was 0.39 µg/mL. Moreover, the MIC in data set [20] turned out to be 0.012 µg/mL; in data set [21] (read-out: MIC) it was 0.39 µg/mL; in data set [22] (5D601, read-out: MIC), 1.56 µg/mL; in data set [23], 1.56 µg/mL. For the same compound, the half-life in data set [25] is 2.6 h.

In the case of `Cc1cc(SCC2=C(C(=O)[O-])N3C(=O)C(NC(=O)C(=NOC(C)(C)C(=O)NN=Cc4ccc(O)c(O)c4)c4csc(N)n4)[C@H]3SC2)n2nc(CO)nc2n1.[Na+]` (stereo partly shown) [Example 44, sodium 7-{2-[2-amino-1,3-thiazol-4-yl]-2-[1-(3-(3,4-dihydroxybenzylidene)carbazoyl)-1-methylethoxyimino]acetamido}-3-[(2-hydroxymethyl-5-methyl-s-triazolo[1,5-a]pyrimidin-7-yl)thiomethyl]-3-cephem-4-carboxylate], the MIC stood at 0.78 µg/mL in [1]; 6.25 µg/mL in data set [26]; 0.1 µg/mL in data set [3]; 12.5 µg/mL in data set [4] (Citrobacter freundii, GN7391); 12.5 µg/mL in [5]; 12.5 µg/mL in [6]. The minimal inhibitory concentration (MIC) in [8] was 0.78 µg/mL; in data set [9], 0.78 µg/mL; in data set [11] (Enterobacter cloacae, GN7471), 1.56 µg/mL; in data set [13], 12.5 µg/mL; in data set [15], 0.39 µg/mL; in data set [16], 0.2 µg/mL. Also, the MIC in data set [17] (Escherichia coli, ML4704) stood at 0.39 µg/mL; in data set [20], 0.39 µg/mL; in data set [23], 3.13 µg/mL.

Turning to `COCc1nc2nc(C)cc(SCC3=C(C(=O)O)N4C(=O)C(NC(=O)C(=NOC(C)(C)C(=O)NN)c5csc(N)n5)C4SC3)n2n1` (stereo not shown) [Example 47], the minimal inhibitory concentration (MIC) in data set [1] is 100 µg/mL (≈ 145 µM); in data set [26] it was 12.5 µg/mL (≈ 18.1 µM); in data set [3], 0.78 µg/mL (≈ 1.13 µM); in data set [4] (setting [32]) it was more than 100 µg/mL; in [5] it was 100 µg/mL (≈ 145 µM); in data set [6] (setting [33]) it was 50 µg/mL (≈ 72.3 µM). Besides, the MIC was more than 100 µg/mL in data set [8]; 50 µg/mL (≈ 72.3 µM) in data set [9]; 50 µg/mL (≈ 72.3 µM) in [11] (setting [34]); more than 100 µg/mL in data set [13] (setting [30]); 50 µg/mL (≈ 72.3 µM) in data set [15]; 100 µg/mL (≈ 145 µM) in [16]. The results for the minimum inhibitory concentration (MIC) in data set [17] (setting [31]), in data set [20] and in [23] were 0.2 µg/mL (≈ 0.289 µM), 6.25 µg/mL (≈ 9.03 µM) and 6.25 µg/mL (≈ 9.03 µM), respectively.
